The results in this text go back to ChEMBL document CHEMBL3286146, “Prediction of anti-tumor chemical probes of a traditional Chinese medicine formula by HPLC fingerprinting combined with molecular docking” (Eur J Med Chem, 2014).

Series [1] in a line: Retention time of the compound by chromatography. Type of series: physicochemical.
Series [2] in a line: Binding affinity to Bcl-xL (unknown origin). Also noted: species or system Homo sapiens.
Series [3] relates to HepG2. Briefly: Anticancer activity against human HepG2 cells assessed as cell viability after 48 hrs by MTT assay. Type of series: functional, cell-based. As to conditions: HepG2, 48 h.
A further series deals with Interleukin-2 (Homo sapiens, UniProt P60568). Briefly: Binding affinity to IL-2 (unknown origin).
Chain of Interleukin-2 (P60568 whole entry): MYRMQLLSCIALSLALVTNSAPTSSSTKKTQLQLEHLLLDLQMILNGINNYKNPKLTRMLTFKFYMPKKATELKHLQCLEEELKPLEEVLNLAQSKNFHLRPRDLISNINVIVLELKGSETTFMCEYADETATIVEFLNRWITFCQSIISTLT
Another series concerns the target Tumor necrosis factor (Homo sapiens, UniProt P01375). In words: Binding affinity to TNF-alpha (unknown origin).
In series [4] the test system is HepG2. Briefly: Anticancer activity against human HepG2 cells assessed as cell viability after 24 hrs by MTT assay. The class given is functional, cell-based. As to conditions: HepG2, 24 h. (In general: Tetrazolium assays rely on reduction of a dye to a coloured formazan, in cell work by metabolically active cells.)

Chain of Tumor necrosis factor (P01375 whole entry): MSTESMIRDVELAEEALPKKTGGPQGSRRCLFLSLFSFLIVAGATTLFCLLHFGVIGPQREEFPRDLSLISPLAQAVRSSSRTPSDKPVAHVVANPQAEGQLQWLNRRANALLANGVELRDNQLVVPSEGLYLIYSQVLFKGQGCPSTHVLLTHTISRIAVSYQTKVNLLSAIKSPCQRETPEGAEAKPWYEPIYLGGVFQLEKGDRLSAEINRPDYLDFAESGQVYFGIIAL

With `CC(C)(O)[C@@H]1CC[C@](C)([C@H]2[C@@H](O)C[C@@]3(C)[C@@H]4C[C@H](O[C@@H]5O[C@H](CO)[C@@H](O)[C@H](O)[C@H]5O)[C@H]5C(C)(C)[C@@H](O[C@@H]6OC[C@@H](O)[C@H](O)[C@H]6O)CC[C@@]56C[C@@]46CC[C@]23C)O1`, in series [1], the Retention_time is given as 28.6 min. In addition, in series [2], binding was characterised by a dissociation constant (Kd) of 0.126 nM. Moreover, the IC50 (usually the concentration that inhibits the measured activity by half) in the series on HepG2 [3] was over 100000 nM.

For `C/C=C1\[C@H](O[C@@H]2O[C@H](CO)[C@@H](O)[C@H](O)[C@H]2O)OC=C(C(=O)OC)[C@H]1CC(=O)OC[C@H]1O[C@@H](OCCc2ccc(O)cc2)[C@H](O)[C@@H](O)[C@@H]1O`, in series [1], the Retention_time was 13.5 min. The Kd (in general, the concentration at which binding is half-saturated) in series [2] came to 2.4 nM; at Interleukin-2, 2.59 nM. For the same compound, the IC50 in the series with HepG2 [3] is over 100000 nM.

As for `COc1ccc(-c2coc3cc(O[C@@H]4O[C@H](CO)[C@@H](O)[C@H](O)[C@H]4O)ccc3c2=O)cc1O`, in series [1], the Retention_time turned out to be 26.4 min. Besides, the Kd in series [2] was 110 nM; on Tumor necrosis factor, 1820 nM; at Interleukin-2, 35.6 nM. Also, the half-maximal inhibitory concentration (IC50) in the series with HepG2 [3] was over 100000 nM.

As for `C[C@@H]1CC[C@@]2(OC1)O[C@H]1C[C@H]3[C@@H]4CC=C5C[C@@H](O[C@@H]6O[C@H](CO)[C@@H](O)[C@H](O[C@@H]7O[C@H](CO)[C@@H](O)[C@H](O)[C@H]7O)[C@H]6O)CC[C@]5(C)[C@H]4CC[C@]3(C)[C@H]1[C@@H]2C`, the Retention_time in series [1] came to 16.9 min.

On to `O=C(NS(=O)(=O)c1ccc(NCCSc2ccccc2)c([N+](=O)[O-])c1)c1ccc(-c2ccc(F)cc2)cc1`, for which binding in series [2] was put at a Kd of 810 nM.

In turn, `CC(=O)O[C@H]1CC[C@]2(C)[C@H]3CC=C4[C@@H]5CC(C)(C)CC[C@]5(C(=O)O)CC[C@@]4(C)[C@]3(C)CC[C@H]2C1(C)C` [ACETYL OLEANOLIC ACID] yielded a Retention_time in series [1] of 39.8 min. Besides, the IC50 in the series with HepG2 [3] is over 100000 nM.

Regarding `O=c1cc(-c2ccc(O)cc2)oc2cc(O[C@@H]3O[C@H](CO)[C@@H](O)[C@H](O)[C@H]3O)cc(O)c12` [APIGETRIN], in series [1], the Retention_time was 28.6 min. For the same compound, the Kd was found to be 76.2 nM in series [2] and 200 nM at Tumor necrosis factor. For the same compound, the half-maximal inhibitory concentration (IC50) in the series on HepG2 [4] worked out at 90600 nM.

`COc1ccc(-c2coc3cc(O)ccc3c2=O)cc1O` [CALYCOSIN]: the Retention_time in series [1] is reported as 34.5 min. Also, in the series with HepG2 [3], the IC50 was over 100000 nM.

For `O=c1c(-c2ccc(O)cc2)coc2cc(O[C@@H]3O[C@H](CO)[C@@H](O)[C@H](O)[C@H]3O)ccc12` [DAIDZIN], in series [1], the Retention_time was found to be 8.61 min. Besides, the dissociation constant Kd on Interleukin-2 amounted to 3380 nM. For the same compound, the IC50 in the series with HepG2 [4] worked out at 61200 nM.

Regarding `C[C@@H]1CC[C@@]2(OC1)O[C@H]1C[C@H]3[C@@H]4CC=C5C[C@@H](O[C@@H]6O[C@H](CO)[C@@H](O)[C@H](O)[C@H]6O)CC[C@]5(C)[C@H]4CC[C@]3(C)[C@H]1[C@@H]2C` [DISOGLUSIDE], binding at Interleukin-2 was put at a Kd of 0.0289 nM. Also, in the series with HepG2 [4], the IC50 was 30300 nM.

As to `COc1cccc2c1C(=O)c1c(O)c3c(c(O)c1C2=O)C[C@@](O)(C(=O)CO)C[C@@H]3O[C@H]1C[C@H](N)[C@H](O)[C@H](C)O1` [DOXORUBICIN], the IC50 with HepG2 [4] is 12500 nM.

For the compound `COc1ccc(-c2coc3cc(O)ccc3c2=O)cc1` [FORMONONETIN], the Retention_time in series [1] came to 48.5 min. The figures for the Kd (in series [2]; at Interleukin-2) were 7750 nM and 5470 nM, respectively. In the series on HepG2 [4], the 50% inhibitory concentration (IC50) amounted to 60500 nM.

The compound `O=c1cc(-c2ccc(O)c(O)c2)oc2cc(O[C@@H]3O[C@H](CO)[C@@H](O)[C@H](O)[C@H]3O)cc(O)c12` [GALUTEOLIN] showed a Retention_time in series [1] of 31.2 min. For the same compound, the Kd in series [2] came out at 9.89 nM; on Tumor necrosis factor it was 790 nM; on Interleukin-2, 20 nM. Besides, in the series on HepG2 [4], the concentration for half-maximal inhibition (IC50) came to 20800 nM.

`C[C@H](CC(=O)C[C@@H](C)[C@H]1C[C@H](O)[C@@]2(C)C3=C(C(=O)C[C@]12C)[C@@]1(C)CCC(=O)C(C)(C)[C@@H]1C[C@@H]3O)C(=O)O` [GANODERIC ACID A]: in series [1], the Retention_time came out at 50.4 min. This compound also returned a Kd at Tumor necrosis factor of 8.53 nM. Further, the IC50 with HepG2 [3] amounted to 38700 nM.

In series [1], `CC(CC(=O)C[C@@H](C)[C@H]1CC(=O)[C@@]2(C)C3=C(C(=O)C[C@]12C)[C@@]1(C)CC[C@H](O)C(C)(C)[C@@H]1C[C@@H]3O)C(=O)O` (stereo partly specified) [GANODERIC ACID B] came in with a Retention_time of 47.5 min. The compound also registered a Kd at Tumor necrosis factor of 8.81 nM. For the same compound, in the series on HepG2 [3], the IC50 turned out to be 97400 nM.

As to `C[C@H](CC(=O)C[C@@H](C)[C@H]1C[C@H](O)[C@@]2(C)C3=C(C(=O)C[C@]12C)[C@@]1(C)CC[C@H](O)C(C)(C)[C@@H]1C[C@@H]3O)C(=O)O` [GANODERIC ACID C2], the Retention_time in series [1] is recorded as 49.8 min. The compound also gave a Kd at Tumor necrosis factor of 8.39 nM. For the same compound, in the series with HepG2 [3], the 50% inhibitory concentration (IC50) was over 100000 nM.

`CC(CC(=O)C[C@@H](C)[C@H]1CC(=O)[C@@]2(C)C3=C(C(=O)C[C@]12C)[C@@]1(C)CCC(=O)C(C)(C)[C@@H]1C[C@@H]3O)C(=O)O` (stereo partly specified) [GANODERIC ACID D]: in series [1], the Retention_time was 45.7 min. This compound also returned a Kd on Tumor necrosis factor of 18.6 nM. For the same compound, the IC50 in the series with HepG2 [3] is 22900 nM.

Consider `CC(=O)O[C@@H]1C(=O)C2=C(C(=O)C[C@H]3C(C)(C)C(=O)CC[C@]23C)[C@]2(C)C(=O)C[C@H]([C@H](C)CC(=O)CC(C)C(=O)O)[C@@]12C` (stereo partly specified) [GANODERIC ACID F], for which, in series [1], the Retention_time came to 54.4 min. For the same compound, on Tumor necrosis factor, the Kd worked out at 2.69 nM. In addition, in the series with HepG2 [4], the IC50 is 19600 nM.

In series [1], `CC(CC(=O)C[C@@H](C)[C@H]1CC(=O)[C@@]2(C)C3=C(C(=O)[C@@H](O)[C@]12C)[C@@]1(C)CC[C@H](O)C(C)(C)[C@@H]1C[C@@H]3O)C(=O)O` (stereo partly specified) [GANODERIC ACID G] yielded a Retention_time of 46.5 min. For the same compound, in the series on HepG2 [3], the half-maximal inhibitory concentration (IC50) turned out to be 85600 nM.

In series [1], `CC(=O)O[C@@H]1C(=O)C2=C(C(=O)C[C@H]3C(C)(C)[C@@H](O)CC[C@]23C)[C@]2(C)C(=O)C[C@H]([C@H](C)CC(=O)CC(C)C(=O)O)[C@@]12C` (stereo partly specified) [GANODERIC ACID H] registered a Retention_time of 51.1 min. The same compound displayed a Kd on Tumor necrosis factor of 2.45 nM. Besides, the half-inhibitory concentration (IC50) with HepG2 [3] was found to be 70300 nM.

As to `C[C@H](CCC=C(CO)CO)[C@H]1CC[C@@]2(C)C3=CC[C@H]4C(C)(C)C(=O)CC[C@]4(C)C3=CC[C@]12C` [GANODERIOL F], the Retention_time in series [1] is listed as 10.3 min. The same compound came in with a Kd at Tumor necrosis factor of 16.8 nM. In addition, the IC50 with HepG2 [3] is 20700 nM.

In the case of `O=c1cc(-c2ccc(O)c(O)c2)oc2cc(O)cc(O)c12` [LUTEOLIN], in series [1], the Retention_time was 38.1 min. In the series with HepG2 [4], the IC50 came to 80800 nM.

On to `COc1ccc(-c2coc3cc(O[C@@H]4O[C@H](CO)[C@@H](O)[C@H](O)[C@H]4O)ccc3c2=O)cc1` [ONONIN], for which the Retention_time in series [1] is given as 39.3 min. For the same compound, the figures for the Kd (in series [2]; at Interleukin-2) were 170 nM and 120 nM, respectively. The IC50 with HepG2 [3] is 40800 nM.
